Patent US20040204487A1, “Novel medicinal product” (priority 2002, published 2004)
Entries after “also recorded” stand apart in the source; their conditions may differ.

Experiments:
3T3-F442A cells [1] = assay: Triacylglyceride accumulation in differentiating 3T3-F442A pre-adipocytes; type: cell-based, murine; conditions: for Triacylglycerides (μg/mg protein): 10 μM from confluency, control (no treatment) 0.16; for Triacylglycerides (μg/mg protein) / inhibition of cell differentiation (in words) / concentration of TAGs in the adipocytes, % relative to the control: 7 days; for inhibition of cell differentiation (in words): 10 μM; for concentration of TAGs in the adipocytes, % relative to the control: control 100% (FIG. 2)
Protocol: The pre-adipocyte lines 3T3-F442A (commercial line) and BFC 115 (from Claude Forest INSERM, St. Pères Paris V) are cultured until confluency in Dulbecco's modified Eagle medium (DMEM) (Gibco) in the presence of 5% of newborn calf serum and 5% of fetal calf serum (Gibco).
From confluency, the cells are cultured in a differentiating medium (DMEM with 10% of fetal calf serum and 20 nM of insulin) in the presence or absence of the metabolites to be tested.
The medium is renewed every two or three days.
The differentiation of the cells is evaluated either by morphological criteria (very rounded cells having accumulated large lipid vacuoles) or by measuring the average amount of triglycerides per cell (ratio of the amount of triglyceride per dish to the amount of protein per dish). Under standard culture conditions, in 8 days, 90% of the pre-adipocytes have differentiated to adipocytes.
The cells are washed with PBS phosphate buffer (Sigma), recovered from the bottom of the Petri dish by scraping with a spatula, fragmented by ultrasound (2 seconds) and then centrifuged at 10000 g for 20 minutes.
The centrifugation supernatant is removed for triacylglyceride (TAG) analysis.
To determine the average amount of triglycerides per cell at the end of the abovementioned experiments, an automated enzymatic colorimetric test (Roche method) which is based on the studies of Wahlefeld (Wahlefeld and Bergmeyer (eds). Methods of Enzymatic Analysis. 2 second edition. New York Academic Press Inc. 1974: 1831) was used as assaying method.
The 3T3-F442A pre-adipocyte cells were treated from confluency with 12(R)-HETE (10 μM), 12(S)-HETE (10 μM), 11,12-EET (10 μM) and with Δ 15-deoxy prostaglandin J2 (10 μM, Δ 15-deoxyPGJ2) in the presence or absence of 10 μM of 12(R)-HETE. The cell differentiation was evaluated after 7 days by measuring, as indicated above, the amount of triacylglycerides accumulated per mg of protein.
To do this, 3T3-F442A fibroblasts, or pre-adipocyte cells, were treated from confluency with various concentrations of 12(R)-HETE. The cell differentiation was evaluated after 7 days by measuring the amount of triacylglycerides (TAGs) accumulated per mg of protein (prot).

[2] = system: BFC-115 pre-adipocyte cells; assay: Triacylglyceride accumulation in differentiating BFC-115 pre-adipocytes; type: cell-based, murine; conditions: 7 days; for Amount of TAG in μg/mg of protein: control 0.45; for inhibition of the differentiation of the pre-adipocytes: 10 μM
Protocol: The pre-adipocyte lines 3T3-F442A (commercial line) and BFC 115 (from Claude Forest INSERM, St. Pères Paris V) are cultured until confluency in Dulbecco's modified Eagle medium (DMEM) (Gibco) in the presence of 5% of newborn calf serum and 5% of fetal calf serum (Gibco). From confluency, the cells are cultured in a differentiating medium (DMEM with 10% of fetal calf serum and 20 nM of insulin) in the presence or absence of the metabolites to be tested. The medium is renewed every two or three days. The differentiation of the cells is evaluated either by morphological criteria (very rounded cells having accumulated large lipid vacuoles) or by measuring the average amount of triglycerides per cell (ratio of the amount of triglyceride per dish to the amount of protein per dish). Under standard culture conditions, in 8 days, 90% of the pre-adipocytes have differentiated to adipocytes. […] The BFC-115 pre-adipocyte cells were treated from confluency with 12(R)-HETE (10 μM), 12(S)-HETE (10 μM), 11,12-EET (10 μM) and with arachidonic acid AA (100 μM). The cell differentiation was evaluated after 7 days by measuring the amount of triacylglycerides accumulated per mg of protein.

[3] = system: cells from human adipose tissue; assay: Triglyceride accumulation in cells from human adipose tissue; type: cell-based; conditions: 10 μM, pro-differentiating medium, three experiments
Source text: In addition, cells originating from human fat tissues subsequent to surgical interventions requiring their removal were used. The removed tissues are collected on a bed of ice and immediately treated in the laboratory. The cell culture consists of a mixture of pre-adipocyte cells and adipocyte cells already differentiated.

3T3-F442A cells [4] = assay: Direct morphological examination of differentiation of fibroblasts to adipocytes; type: cell-based, murine
Protocol: The differentiation of the cells is evaluated either by morphological criteria (very rounded cells having accumulated large lipid vacuoles) or by measuring the average amount of triglycerides per cell (ratio of the amount of triglyceride per dish to the amount of protein per dish). Under standard culture conditions, in 8 days, 90% of the pre-adipocytes have differentiated to adipocytes. To show by direct morphological examination the differentiation of the fibroblasts to adipocytes in the presence or absence of the metabolites 12-HETE and/or 11,12-EET, the following procedure was carried out. The 3T3-F442A cells are treated, from confluency, with these metabolites. The treatment was renewed every 2 or 3 days throughout the entire differentiation process. The level of differentiation of the cells was evaluated by observation under a photon microscope with a 200 times magnification (see the photos shown in figures FIG. 1A, FIG. 1A1, FIG. 1B and FIG. 1B1).

[5] = system: differentiated 3T3-F442A cells; assay: Residual level of metabolite in culture medium of differentiated cells (LC-MS); type: in vitro ADME, murine; conditions: 10 μM
Protocol: It was also determined that the residual level of 12(R)-HETE, present at a concentration of 10 μM in the culture medium of the differentiated 3T3-F442A cells, is respectively 85% and 2.3% after 6 h and 18 h of incubation.
The residual amounts of 12(R)-HETE were analyzed by LC-MS.

[6] = Cellular toxicity markers after 8 days of treatment; type: cell-based; conditions: 30 μM
Protocol: The possible toxicity of the metabolites selected in accordance with the invention was also studied.
For this purpose, several cellular toxicity markers were measured after 8 days of treatment, namely
the LDH (lactate dehydrogenase) activity in the culture medium, a control for membrane permeabilization,
fragmentation of the nucleus by “Hoechst” staining, which is a marker for apoptosis and which is described in Leukemia, 15, 1572-81. Plenchette, S., Moutet M., Benguella M., N'Gondara J. P., Guigner F., Coffe C., Corcos L., Bettaieb A. and Solary E. (2001).

[7] = system: pre-adipocyte fibroblasts; conditions: cited from earlier work

| Compound | Triacylglycerides (μg/mg protein) (3T3-F442A cells [1]) | inhibition of cell differentiation (in words) (3T3-F442A cells [1]) | Amount of TAG in μg/mg of protein ([2]; 10 μM from confluency) | inhibition of the differentiation of the pre-adipocytes [2] | inhibition of the accumulation of triglycerides [3] | other results |
| --- | --- | --- | --- | --- | --- | --- |
| CCCCC/C=C\CC1OC1C/C=C\C/C=C\CCCC(=O)O (stereo not drawn) [11,12-EET, 11,12-epoxyeicosatrienoic acid] | 0.08 μg/mg protein | greatly inhibit the cell differentiation | =0.22 μg/mg of protein | approximately 40% | 50% |  |
| CCCCC/C=C\C[C@@H](O)/C=C/C=C\C/C=C\CCCC(=O)O [12(R)-HETE, 12-hydroxyeicosatetraenoic acid] | 0.04 μg/mg protein | greatly inhibit the cell differentiation; also recorded: greater than that of 12(S)-HETE | =0.17 μg/mg of protein | approximately 40% | 50% | concentration of TAGs in the adipocytes, % relative to the control (3T3-F442A cells [1]; 5 μM): approximately 85%; inhibition of the differentiation induced by Δ 15-deoxyprostaglandin J2 (3T3-F442A cells [1]; 10 μM 12(R)-HETE with 10 μM 15-deoxyPGJ2, 7 days): approximately 40%; concentration of TAGs in the adipocytes, % relative to the control (3T3-F442A cells [1]; 30 μM): approximately 25%; cell morphology under photon microscope (3T3-F442A cells [4]; 10 μM, 7 days, with or without 100 μM arachidonic acid (FIG. 1A1, 1B1)): spindle-shaped with very few lipid globules; penetration into the cells (conclusion from residual level) [5]: clearly penetrates into the cells; residual level in the culture medium ([5]; after 6 h of incubation): 85%; residual level in the culture medium ([5]; after 18 h of incubation): 2.3%; cellular toxicity markers (number of cells, cell morphology, LDH activity in medium, fragmentation of the nucleus by Hoechst staining) [6]: None of these markers responds positively |
| CCCCC/C=C\C[C@@H](O)/C=C/C=C\C/C=C\CCCC(=O)O [12(S)-HETE, 12-hydroxyeicosatetraenoic acid] | 0.07 μg/mg protein | greatly inhibit the cell differentiation | =0.28 μg/mg of protein | approximately 40% |  |  |
| CCCCC/C=C/C=C1/C(=O)C=C[C@@H]1C/C=C\CCCC(=O)O [15-deoxyPGJ2, 15-deoxy-Δ^12,14-prostaglandin J2, reference compound] | 0.52 μg/mg protein |  |  |  |  | concentrations at which differentiation is accelerated [7]: 10^−5 to 10^−6 M |
| CCCCC/C=C\C/C=C\C/C=C\C/C=C\CCCC(=O)O [AA, arachidonic acid, reference compound] |  |  |  |  |  | Amount of TAG in μg/mg of protein ([2]; 100 μM from confluency): =0.55 μg/mg of protein; effect on differentiation (in words) ([2]; 100 μM): clearly promotes the differentiation; cell morphology under photon microscope (3T3-F442A cells [4]; 100 μM from confluency (FIG. 1B)): increases the amount of cells differentiated into adipocytes |
